Data reported in US8993561B2, “Nitrobenzothiazole derivatives, preparation thereof and therapeutic applications thereof” (Sanofi, priority 2010, dated 2015).
≈ marks a conversion by molar mass, not a printed value.

test system: not given; test: not given; conditions: not given

Row | Structure (SMILES) | melting point [°C]
1 | O=C(NCCc1ccc(Cl)cc1)c1nc2cc(C(F)(F)F)cc([N+](=O)[O-])c2s1 | 140
2 | O=C(NCCC1CCOCC1)c1nc2cc(C(F)(F)F)cc([N+](=O)[O-])c2s1 [Compound 2, 7-nitro-N-[2-(tetrahydro-2H-pyran-4-yl)ethyl]-5-(trifluoromethyl)-1,3-benzothiazole-2-carboxamide] | 154

test system: Mycobacterium tuberculosis H37Rv strain; test: Alamar blue (MABA) test, MIC on Mycobacterium tuberculosis H37Rv; assay type: cell-based; conditions: H37RV, read-out: fluorimetric MIC (minimum inhibitory concentration) with respect to the growth of Mycobacterium tuberculosis

Row | Structure (SMILES) | MIC [µM]
3 | O=C(NCCc1cccc(Cl)c1)c1nc2cc(C(F)(F)F)cc([N+](=O)[O-])c2s1 [Compound 16, N-[2-(3-chlorophenyl)-ethyl]-7-nitro-5-(trifluoromethyl)-1,3-benzothiazole-2-carboxamide] | < 0.5
4 | O=C(NCCc1ccccc1O)c1nc2cc(C(F)(F)F)cc([N+](=O)[O-])c2s1 [Compound 17, N-[2-(2-hydroxyphenyl)ethyl]-7-nitro-5-(trifluoromethyl)-1,3-benzothiazole-2-carboxamide] | < 0.5
5 | O=C(NCCc1ccc(O)cc1)c1nc2cc(C(F)(F)F)cc([N+](=O)[O-])c2s1 [Compound 18, N-[2-(4-hydroxyphenyl)ethyl]-7-nitro-5-(trifluoromethyl)-1,3-benzothiazole-2-carboxamide] | < 0.5
6 | O=C(NCCc1nc2ccccc2o1)c1nc2cc(C(F)(F)F)cc([N+](=O)[O-])c2s1 [Compound 38, N-[2-(1,3-benzoxazol-2-yl)ethyl]-7-nitro-5-(trifluoromethyl)-1,3-benzothiazole-2-carboxamide] | < 0.5

same assay, conditions: in vitro, Alamar blue (MABA), H37Rv strain, fluorescence reading, read-out: fluorimetric MIC (minimum inhibitory concentration) with respect to the growth of Mycobacterium tuberculosis

Row | Structure (SMILES) | MIC [µM]
7 | O=C(NCCC1CCOCC1)c1nc2cc(C(F)(F)F)cc([N+](=O)[O-])c2s1 [Compound 2, 7-nitro-N-[2-(tetrahydro-2H-pyran-4-yl)ethyl]-5-(trifluoromethyl)-1,3-benzothiazole-2-carboxamide] | < 0.5
8 | COc1ccc(CCNC(=O)c2nc3cc(C(F)(F)F)cc([N+](=O)[O-])c3s2)cc1 [Compound 7, N-[2-(4-methoxyphenyl)ethyl]-7-nitro-5-(trifluoromethyl)-1,3-benzothiazole-2-carboxamide] | < 0.5
9 | O=C(NCCN1CCc2ccccc2C1)c1nc2cc(C(F)(F)F)cc([N+](=O)[O-])c2s1 [Compound 9, N-[2-(1,2,3,4-tetrahydroisoquinolin-2(1H)-yl)ethyl]-7-nitro-5-(trifluoromethyl)-1,3-benzothiazole-2-carboxamide] | < 0.5
10 | O=C(NCCc1ccc(F)cc1)c1nc2cc(C(F)(F)F)cc([N+](=O)[O-])c2s1 [Compound 14, N-[2-(4-fluorophenyl)ethyl]-7-nitro-5-(trifluoromethyl)-1,3-benzothiazole-2-carboxamide] | < 0.5
11 | COc1ccc(CCNC(=O)c2nc3cc(C(F)(F)F)cc([N+](=O)[O-])c3s2)cc1OC [Compound 15, N-[2-(3,4-dimethoxyphenyl)ethyl]-7-nitro-5-(trifluoromethyl)-1,3-benzothiazole-2-carboxamide] | < 0.5
12 | O=C(NCCNc1ccccn1)c1nc2cc(C(F)(F)F)cc([N+](=O)[O-])c2s1 [Compound 21, 7-nitro-N-[2-(pyridin-2-ylamino)ethyl]-5-(trifluoromethyl)-1,3-benzothiazole-2-carboxamide] | < 0.5
13 | O=C(NCCN1CCSCC1)c1nc2cc(C(F)(F)F)cc([N+](=O)[O-])c2s1 [Compound 22, 7-nitro-N-[2-thiomorpholin-4-ylethyl)-5-(trifluoromethyl)-1,3-benzothiazole-2-carboxamide] | < 0.5
14 | Cc1cccnc1CCNC(=O)c1nc2cc(C(F)(F)F)cc([N+](=O)[O-])c2s1 [Compound 25, N-[2-(3-methylpyridin-2-yl)ethyl]-7-nitro-5-(trifluoromethyl)-1,3-benzothiazole-2-carboxamide] | < 0.5
15 | O=C(NCC(c1ccccc1)N1CCOCC1)c1nc2cc(C(F)(F)F)cc([N+](=O)[O-])c2s1 (stereo not drawn) [Compound 26, N-(2-morpholin-4-yl-2-phenylethyl)-7-nitro-5-(trifluoromethyl)-1,3-benzothiazole-2-carboxamide] | < 0.5
16 | CC1(C)CC(CCNC(=O)c2nc3cc(C(F)(F)F)cc([N+](=O)[O-])c3s2)(c2ccccc2)CCO1 (stereo not drawn) [Compound 27, N-[2-(2,2-dimethyl-4-phenyltetrahydro-2H-pyran-4-yl)ethyl]-7-nitro-5-(trifluoromethyl)-1,3-benzothiazole-2-carboxamide] | < 0.5
17 | Cc1nc(CCNC(=O)c2nc3cc(C(F)(F)F)cc([N+](=O)[O-])c3s2)sc1Cl [Compound 36, N-[2-(5-chloro-4-methyl-1,3-thiazol-2-yl)ethyl]-7-nitro-5-(trifluoromethyl)-1,3-benzothiazole-2-carboxamide] | < 0.5
18 | CCc1csc(CCNC(=O)c2nc3cc(C(F)(F)F)cc([N+](=O)[O-])c3s2)n1 [Compound 39, N-[2-(4-ethyl-1,3-thiazol-2-yl)ethyl]-7-nitro-5-(trifluoromethyl)-1,3-benzothiazole-2-carboxamide] | < 0.5
19 | Cc1nc(CCNC(=O)c2nc3cc(C(F)(F)F)cc([N+](=O)[O-])c3s2)sc1C [Compound 40, N-[2-(4,5-dimethyl-1,3-thiazol-2-yl)ethyl]-7-nitro-5-(trifluoromethyl)-1,3-benzothiazole-2-carboxamide] | < 0.5
20 | NNC(=O)c1ccncc1 [isoniazid, reference compound] | 0.36 (≈ 0.0494 µg/mL)
21 | CO[C@H]1/C=C/O[C@@]2(C)Oc3c(C)c(O)c4c(O)c(c(/C=N/N5CCN(C)CC5)c(O)c4c3C2=O)NC(=O)/C(C)=C\C=C\[C@H](C)[C@H](O)[C@@H](C)[C@@H](O)[C@@H](C)[C@H](OC(C)=O)[C@@H]1C [rifampicin, reference compound] | 0.12 (≈ 0.0988 µg/mL)
